Test results: ChEMBL document CHEMBL5131472, “Synthesis and antiviral activity of formycin derivatives with anti-influenza virus activity” (Bioorg Med Chem, 2022)

Experiments:
Influenza A virus = assay: Antiviral activity against Influenza A virus A/WSN/33(H1N1) infected in dog MDCK cells assessed as reduction in viral titer in supernatants incubated for 24 hrs by plaque assay; type: functional, organism-based
[1] = Cytotoxicity against dog MDCK cells assessed as reduction in cell viability incubated for 48 hrs by CellTiter96 Aqueous one solution assay; type: toxicity, cell-based, Canis lupus familiaris

**Q.** Which results are given for `CNc1ncnc2c([C@@H]3O[C@H](CO)[C@@H](O)[C@H]3O)n[nH]c12`?
**A.** IC50 (Influenza A virus): 0.015 µM; CC50 at 48 h [1]: 1.5 µM

**Q.** With `CSc1ncnc2c([C@@H]3O[C@H](CO)[C@@H](O)[C@H]3O)n[nH]c12` as the molecule, how does the IC50 (Influenza A virus) read?
**A.** 0.01 µM

**Q.** And the CC50 at 48 h [1]?
**A.** 9.3 µM

**Q.** With `OC[C@H]1O[C@@H](c2n[nH]c3c(N4CCOCC4)ncnc23)[C@H](O)[C@@H]1O` as the molecule, how does the CC50 at 48 h [1] read?
**A.** > 1000 µM

**Q.** For `CSc1ncnc2c([C@@H]3O[C@H](CO)[C@@H](O)[C@@H]3O)n[nH]c12`, which IC50 (Influenza A virus) is on record?
**A.** > 3 µM

**Q.** And the CC50 at 48 h [1]?
**A.** > 1000 µM

**Q.** For `CC(C)Sc1ncnc2c([C@@H]3O[C@H](CO)[C@@H](O)[C@H]3O)n[nH]c12`, which CC50 at 48 h [1] is on record?
**A.** 503 µM

**Q.** Which CC50 at 48 h [1] does the source give for `CC(C)Nc1ncnc2c([C@@H]3O[C@H](CO)[C@@H](O)[C@H]3O)n[nH]c12` here?
**A.** > 1000 µM

**Q.** Which CC50 at 48 h [1] does the source give for `OC[C@H]1O[C@@H](c2n[nH]c3c(N4CCCCC4)ncnc23)[C@H](O)[C@@H]1O` here?
**A.** 289 µM

**Q.** For `CCNc1ncnc2c([C@@H]3O[C@H](CO)[C@@H](O)[C@H]3O)n[nH]c12`, which IC50 (Influenza A virus) is on record?
**A.** 0.313 µM

**Q.** And the CC50 at 48 h [1]?
**A.** 5.7 µM

**Q.** With `CN(C)c1ncnc2c([C@@H]3O[C@H](CO)[C@@H](O)[C@H]3O)n[nH]c12` as the molecule, how does the IC50 (Influenza A virus) read?
**A.** 2.84 µM

**Q.** And the CC50 at 48 h [1]?
**A.** 70 µM

**Q.** For `OC[C@H]1O[C@@H](c2n[nH]c3c(S)ncnc23)[C@H](O)[C@@H]1O`, which IC50 (Influenza A virus) is on record?
**A.** 0.571 µM

**Q.** And the CC50 at 48 h [1]?
**A.** 403 µM

**Q.** With `CSc1nc(Cl)nc2c([C@@H]3O[C@H](CO)[C@@H](O)[C@H]3O)n[nH]c12` as the molecule, how does the IC50 (Influenza A virus) read?
**A.** > 1 µM

**Q.** And the CC50 at 48 h [1]?
**A.** > 1000 µM

**Q.** For `COc1ncnc2c([C@@H]3O[C@H](CO)[C@@H](O)[C@H]3O)n[nH]c12`, which IC50 (Influenza A virus) is on record?
**A.** 0.088 µM

**Q.** What about the CC50 at 48 h [1] of the same molecule?
**A.** 1.2 µM

**Q.** For `CSc1ncnc2c([C@@H]3O[C@H](CO)[C@@H](O)[C@H]3O)nn(C)c12`, which IC50 (Influenza A virus) is on record?
**A.** 0.344 µM

**Q.** And the CC50 at 48 h [1]?
**A.** 205 µM

**Q.** For `OC[C@H]1O[C@@H](c2n[nH]c3c(SC(F)(F)F)ncnc23)[C@H](O)[C@@H]1O`, which IC50 (Influenza A virus) is on record?
**A.** 0.397 µM

**Q.** What about the CC50 at 48 h [1] of the same molecule?
**A.** 3.6 µM

**Q.** With `CSc1ncnc2c([C@@H]3O[C@H](CO)[C@@H](O)[C@]3(C)O)n[nH]c12` as the molecule, how does the IC50 (Influenza A virus) read?
**A.** 0.306 µM

**Q.** What about the CC50 at 48 h [1] of the same molecule?
**A.** > 1000 µM

**Q.** With `NC(=O)CSc1ncnc2c([C@@H]3O[C@H](CO)[C@@H](O)[C@H]3O)n[nH]c12` as the molecule, how does the CC50 at 48 h [1] read?
**A.** 307 µM

**Q.** Which IC50 (Influenza A virus) does the source give for `CCCCNc1ncnc2c([C@@H]3O[C@H](CO)[C@@H](O)[C@H]3O)n[nH]c12` here?
**A.** 0.68 µM

**Q.** And the CC50 at 48 h [1]?
**A.** > 1000 µM

**Q.** What does the source list for `OC[C@H]1O[C@@H](c2n[nH]c3c([SeH])ncnc23)[C@H](O)[C@@H]1O`?
**A.** IC50 (Influenza A virus): 0.035 µM; CC50 at 48 h [1]: 5.6 µM

**Q.** What does the source list for `CSc1nc(SC)c2[nH]nc([C@@H]3O[C@H](CO)[C@@H](O)[C@H]3O)c2n1`?
**A.** IC50 (Influenza A virus): > 1 µM; CC50 at 48 h [1]: > 1000 µM

**Q.** What does the source list for `CSc1ncnc2c([C@@H]3O[C@H](CO)[C@@H](O)[C@@]3(C)O)n[nH]c12`?
**A.** IC50 (Influenza A virus): 2.59 µM; CC50 at 48 h [1]: > 1000 µM

**Q.** Which IC50 (Influenza A virus) does the source give for `OC[C@H]1O[C@@H](c2n[nH]c3c(-n4ccnn4)ncnc23)[C@H](O)[C@@H]1O` here?
**A.** 0.343 µM

**Q.** What about the CC50 at 48 h [1] of the same molecule?
**A.** 287 µM

**Q.** With `C[Se]c1ncnc2c([C@@H]3O[C@H](CO)[C@@H](O)[C@H]3O)n[nH]c12` as the molecule, how does the IC50 (Influenza A virus) read?
**A.** 0.024 µM

**Q.** And the CC50 at 48 h [1]?
**A.** < 0.1 µM

**Q.** For `C=CCSc1ncnc2c([C@@H]3O[C@H](CO)[C@@H](O)[C@H]3O)n[nH]c12`, which IC50 (Influenza A virus) is on record?
**A.** 0.22 µM

**Q.** What about the CC50 at 48 h [1] of the same molecule?
**A.** 412 µM

**Q.** Which CC50 at 48 h [1] does the source give for `CSc1ncnc2c([C@@H]3O[C@H](CO)[C@H](O)[C@H]3O)n[nH]c12` here?
**A.** > 1000 µM

**Q.** For `CSc1nc(O)nc2c([C@@H]3O[C@H](CO)[C@@H](O)[C@H]3O)n[nH]c12`, which IC50 (Influenza A virus) is on record?
**A.** > 1 µM

**Q.** What about the CC50 at 48 h [1] of the same molecule?
**A.** > 1000 µM

**Q.** Which IC50 (Influenza A virus) does the source give for `OC[C@H]1O[C@@H](c2n[nH]c3c(-n4nccn4)ncnc23)[C@H](O)[C@@H]1O` here?
**A.** 0.103 µM

**Q.** And the CC50 at 48 h [1]?
**A.** < 0.1 µM

**Q.** With `OC[C@H]1O[C@@H](c2nn3c4c(ncnc24)SCC3)[C@H](O)[C@@H]1O` as the molecule, how does the CC50 at 48 h [1] read?
**A.** 249 µM

**Q.** For `OC[C@H]1O[C@@H](c2n[nH]c3c(N4CCCC4)ncnc23)[C@H](O)[C@@H]1O`, which CC50 at 48 h [1] is on record?
**A.** 211 µM

**Q.** Which CC50 at 48 h [1] does the source give for `CCCCSc1ncnc2c([C@@H]3O[C@H](CO)[C@@H](O)[C@H]3O)n[nH]c12` here?
**A.** 238 µM

**Q.** Which CC50 at 48 h [1] does the source give for `OC[C@H]1O[C@@H](c2n[nH]c3c(-c4cnn[nH]4)ncnc23)[C@H](O)[C@@H]1O` here?
**A.** > 1000 µM

**Q.** Which CC50 at 48 h [1] does the source give for `CSc1ncnc2c([C@@H]3O[C@H](CO)C[C@H]3O)n[nH]c12` here?
**A.** > 1000 µM

**Q.** Which IC50 (Influenza A virus) does the source give for `OC[C@H]1O[C@@H](c2n[nH]c3c(SCC(F)(F)F)ncnc23)[C@H](O)[C@@H]1O` here?
**A.** 1.09 µM

**Q.** And the CC50 at 48 h [1]?
**A.** 64 µM

**Q.** For `CN[C@H]1[C@H](O)[C@@H](CO)O[C@H]1c1n[nH]c2c(SC)ncnc12`, which CC50 at 48 h [1] is on record?
**A.** 49 µM

**Q.** Which CC50 at 48 h [1] does the source give for `CSc1ncnc2c([C@@H]3O[C@H](CO)[C@@H](O)[C@H]3O)n(C)nc12` here?
**A.** > 1000 µM

**Q.** Which IC50 (Influenza A virus) does the source give for `CSc1ncnc2c([C@H]3C[C@H](O)[C@@H](CO)O3)n[nH]c12` here?
**A.** > 3 µM

**Q.** What about the CC50 at 48 h [1] of the same molecule?
**A.** > 1000 µM

**Q.** Which IC50 (Influenza A virus) does the source give for `OC[C@H]1O[C@@H](c2n[nH]c3c(NCCl)ncnc23)[C@H](O)[C@@H]1O` here?
**A.** 0.282 µM

**Q.** What about the CC50 at 48 h [1] of the same molecule?
**A.** 19 µM

**Q.** With `OC[C@H]1O[C@@H](c2n[nH]c3c(NC4CC4)ncnc23)[C@H](O)[C@@H]1O` as the molecule, how does the CC50 at 48 h [1] read?
**A.** 431 µM

**Q.** With `CSc1ncnc2c([C@H]3C=C[C@@H](CO)O3)n[nH]c12` as the molecule, how does the CC50 at 48 h [1] read?
**A.** 190 µM

**Q.** Which results are given for `CCSc1ncnc2c([C@@H]3O[C@H](CO)[C@@H](O)[C@H]3O)n[nH]c12`?
**A.** IC50 (Influenza A virus): 0.201 µM; CC50 at 48 h [1]: > 1000 µM

**Q.** Which CC50 at 48 h [1] does the source give for `CSc1ncnc2c([C@@H](CO)OC(CO)CO)n[nH]c12` here?
**A.** > 1000 µM

**Q.** Which CC50 at 48 h [1] does the source give for `CCc1ncnc2c([C@@H]3O[C@H](CO)[C@@H](O)[C@H]3O)n[nH]c12` here?
**A.** > 1000 µM

**Q.** Which CC50 at 48 h [1] does the source give for `CSCc1ncnc2c([C@@H]3O[C@H](CO)[C@@H](O)[C@H]3O)n[nH]c12` here?
**A.** > 1000 µM

**Q.** Which IC50 (Influenza A virus) does the source give for `OC[C@H]1O[C@@H](c2n[nH]c3c(-n4cncn4)ncnc23)[C@H](O)[C@@H]1O` here?
**A.** 0.251 µM

**Q.** What about the CC50 at 48 h [1] of the same molecule?
**A.** 7.9 µM

**Q.** For `O=c1[nH]cnc2c([C@@H]3O[C@H](CO)[C@@H](O)[C@H]3O)n[nH]c12` [FORMYCIN B], which IC50 (Influenza A virus) is on record?
**A.** 3.63 µM

**Q.** What about the CC50 at 48 h [1] of the same molecule?
**A.** 68 µM

**Q.** With `Nc1ncnc2c([C@@H]3O[C@H](CO)[C@@H](O)[C@H]3O)[nH]nc12` [FORMYCIN] as the molecule, how does the IC50 (Influenza A virus) read?
**A.** 0.029 µM

**Q.** What about the CC50 at 48 h [1] of the same molecule?
**A.** 2.6 µM
